From patent publication US10717716B2, “1,3,4-oxadiazole derivative compounds as histone deacetylase 6 inhibitor, and the pharmaceutical composition comprising the same” (Chong Kun Dang Pharmaceutical Corp., priority 2015, dated 2020) come the findings set out here.

This assay addresses T1, human recombinant HDAC6 (Homo sapiens, UniProt Q9UBN7).
T1 construct: purchased Calbiochem 382180
T1 sequence (Q9UBN7 1-1215): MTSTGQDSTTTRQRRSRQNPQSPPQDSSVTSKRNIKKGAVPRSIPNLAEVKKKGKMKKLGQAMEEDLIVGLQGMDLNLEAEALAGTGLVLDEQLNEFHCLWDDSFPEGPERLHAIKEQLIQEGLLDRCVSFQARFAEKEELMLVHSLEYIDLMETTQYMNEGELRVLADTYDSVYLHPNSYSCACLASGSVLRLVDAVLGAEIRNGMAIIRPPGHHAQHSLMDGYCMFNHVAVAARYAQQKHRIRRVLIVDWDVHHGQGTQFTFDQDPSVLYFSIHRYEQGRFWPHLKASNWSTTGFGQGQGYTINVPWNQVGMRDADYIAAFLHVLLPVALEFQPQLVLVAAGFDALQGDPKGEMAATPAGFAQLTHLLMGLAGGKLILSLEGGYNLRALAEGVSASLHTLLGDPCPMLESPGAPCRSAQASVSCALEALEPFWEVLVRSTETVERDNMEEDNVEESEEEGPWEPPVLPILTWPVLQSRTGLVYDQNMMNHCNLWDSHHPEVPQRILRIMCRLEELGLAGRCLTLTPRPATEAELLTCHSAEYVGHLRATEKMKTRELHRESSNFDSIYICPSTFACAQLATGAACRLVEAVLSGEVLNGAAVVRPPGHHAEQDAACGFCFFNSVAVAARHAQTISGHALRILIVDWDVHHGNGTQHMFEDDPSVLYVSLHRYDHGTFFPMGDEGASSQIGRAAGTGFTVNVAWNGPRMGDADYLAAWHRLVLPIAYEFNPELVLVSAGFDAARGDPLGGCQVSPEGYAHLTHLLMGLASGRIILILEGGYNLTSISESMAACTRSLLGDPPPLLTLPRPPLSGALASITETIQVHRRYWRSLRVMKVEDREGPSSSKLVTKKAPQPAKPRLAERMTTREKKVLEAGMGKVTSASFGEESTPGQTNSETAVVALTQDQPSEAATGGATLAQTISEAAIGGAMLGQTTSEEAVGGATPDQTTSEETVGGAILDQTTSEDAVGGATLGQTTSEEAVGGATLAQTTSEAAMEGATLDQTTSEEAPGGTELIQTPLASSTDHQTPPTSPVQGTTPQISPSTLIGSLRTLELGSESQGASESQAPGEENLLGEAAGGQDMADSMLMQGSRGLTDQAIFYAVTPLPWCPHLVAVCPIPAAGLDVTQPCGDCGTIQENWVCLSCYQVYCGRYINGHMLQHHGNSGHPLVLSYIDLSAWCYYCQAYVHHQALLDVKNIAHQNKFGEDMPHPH
As to the kind of experiment: HDAC6 enzyme activity inhibition assay (HDAC Fluorimetric Drug Discovery Kit). It counts as biochemical. The settings on record: for HDAC6 selectivity (fold): HDAC6 over HDAC1; for IC50: human recombinant HDAC6, same protocol as HDAC1, read-out: HDAC6. An outline of the steps:
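Human recombinant HDAC1 or HDAC6 (0.3 μg) reacted with 10 μM Fluor de Lys-SIRT1 substrate and 5-fold compound dilutions for 60 min at 30 °C. Developer II added for 30 min, fluorescence read at Ex 360/Em 460; IC50 calculated from the readings.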

Regarding `CN1CCN(C(=O)N(Cc2ccc(-c3nnc(C(F)F)o3)cn2)c2ccc(F)cc2)CC1` [Compound 21600, N-((5-(5-(difluoromethyl)-1,3,4-oxadiazol-2-yl)pyridin-2-yl)methyl)-N-(4-fluorophenyl)-4-methylpiperazine-1-carboxamide], the “HDAC6 selectivity (fold)” value is reported as 400 fold and the IC50 was determined as 25 nM.
For `CN(C)[C@H]1CCN(C(=O)N(Cc2ccc(-c3nnc(C(F)F)o3)cn2)c2ccc(F)c(Cl)c2)C1` [Compound 21601, (S)—N-(3-chloro-4-fluorophenyl)-N-((5-(5-(difluoromethyl)-1,3,4-oxadiazol-2-yl)pyridin-2-yl)methyl)-3-(dimethylamino)pyrrolidine-1-carboxamide] the same measures were 192 fold and 52 nM.
With `CN(C)[C@@H]1CCN(C(=O)N(Cc2ccc(-c3nnc(C(F)F)o3)cn2)c2ccc(F)c(Cl)c2)C1` [Compound 21602, (R)—N-(3-chloro-4-fluorophenyl)-N-((5-(5-(difluoromethyl)-1,3,4-oxadiazol-2-yl)pyridin-2-yl)methyl)-3-(dimethylamino)pyrrolidine-1-carboxamide], the “HDAC6 selectivity (fold)” value is reported as 526 fold and the IC50 stood at 19 nM.
Taken in the same sequence, the figures for `O=C(N1CCOCC1)N(Cc1ccc(-c2nnc(C(F)F)o2)cn1)c1ccc(F)c(Cl)c1` [Compound 21619, N-(3-chloro-4-fluorophenyl)-N-((5-(5-(difluoromethyl)-1,3,4-oxadiazol-2-yl)pyridin-2-yl)methyl)morpholine-4-carboxamide] were 517 fold and 19 nM.
Regarding `CN1CCN(C(=O)N(Cc2ccc(-c3nnc(C(F)F)o3)cn2)c2ccc(F)c(Cl)c2)CC1` [Compound 21620, N-(3-chloro-4-fluorophenyl)-N-((5-(5-(difluoromethyl)-1,3,4-oxadiazol-2-yl)pyridin-2-yl)methyl)-4-methylpiperazine-1-carboxamide], the “HDAC6 selectivity (fold)” value came to 383 fold and the IC50 turned out to be 26 nM.
For `CN1CCN(c2cccc(N(Cc3ccc(-c4nnc(C(F)F)o4)cc3)C(=O)N3CCS(=O)(=O)CC3)c2)CC1` [Compound 21621, N-(4-(5-(difluoromethyl)-1,3,4-oxadiazol-2-yl)benzyl)-N-(3-(4-methylpiperazin-1-yl)phenyl)thiomorpholine-4-carboxamide 1,1-dioxide], the “HDAC6 selectivity (fold)” value amounted to 16 fold and the IC50 came out at 637 nM.
Take `COc1cccc(N(Cc2ccc(-c3nnc(C(F)F)o3)cn2)C(=O)N2CCN(C)CC2)c1` [Compound 21622, N-((5-(5-(difluoromethyl)-1,3,4-oxadiazol-2-yl)pyridin-2-yl)methyl)-N-(3-methoxyphenyl)-4-methylpiperazine-1-carboxamide]: the “HDAC6 selectivity (fold)” value stood at 226 fold and the IC50 was determined as 44 nM.
As for `COc1ccc(N(Cc2ccc(-c3nnc(C(F)F)o3)cn2)C(=O)N2CCN(C)CC2)cc1` [Compound 21623, N-((5-(5-(difluoromethyl)-1,3,4-oxadiazol-2-yl)pyridin-2-yl)methyl)-N-(4-methoxyphenyl)-4-methylpiperazine-1-carboxamide], the “HDAC6 selectivity (fold)” value was 290 fold and the IC50 worked out at 35 nM.
For `CCN1CCN(C(=O)N(Cc2ccc(-c3nnc(C(F)F)o3)cn2)c2ccccc2)CC1` [Compound 21624, N-((5-(5-(difluoromethyl)-1,3,4-oxadiazol-2-yl)pyridin-2-yl)methyl)-4-ethyl-N-phenylpiperazine-1-carboxamide] the same measures were 347 fold and 29 nM.
`O=C(N1CCS(=O)(=O)CC1)N(Cc1ccc(-c2nnc(C(F)F)o2)cn1)c1ccccc1F` [Compound 21625, N-((5-(5-(difluoromethyl)-1,3,4-oxadiazol-2-yl)pyridin-2-yl)methyl)-N-(2-fluorophenyl)thiomorpholine-4-carboxamide 1,1-dioxide]: the “HDAC6 selectivity (fold)” value was found to be 422 fold and the IC50 worked out at 24 nM.
For the compound `O=C(N1CCS(=O)(=O)CC1)N(Cc1ccc(-c2nnc(C(F)F)o2)cn1)c1cccc(Cl)c1` [Compound 21626, N-(3-chlorophenyl)-N-((5-(5-(difluoromethyl)-1,3,4-oxadiazol-2-yl)pyridin-2-yl)methyl)thiomorpholine-4-carboxamide 1,1-dioxide], the “HDAC6 selectivity (fold)” value is given as 645 fold and the IC50 came to 16 nM.
Regarding `CN1CCN(c2cccc(N(Cc3ccc(-c4nnc(C(F)F)o4)cn3)C(=O)N3CCS(=O)(=O)CC3)c2)CC1` [Compound 21627, N-((5-(5-(difluoromethyl)-1,3,4-oxadiazol-2-yl)pyridin-2-yl)methyl)-N-(3-(4-methylpiperazin-1-yl)phenyl)thiomorpholine-4-carboxamide 1,1-dioxide], the “HDAC6 selectivity (fold)” value was found to be 22 fold and the IC50 was found to be 457 nM.
As for `CN1CCN(c2ccc(N(Cc3ccc(-c4nnc(C(F)F)o4)cn3)C(=O)N3CCS(=O)(=O)CC3)cc2)CC1` [Compound 21628, N-((5-(5-(difluoromethyl)-1,3,4-oxadiazol-2-yl)pyridin-2-yl)methyl)-N-(4-(4-methylpiperazin-1-yl)phenyl)thiomorpholine-4-carboxamide 1,1-dioxide], the “HDAC6 selectivity (fold)” value is on record as 37 fold and the IC50 amounted to 271 nM.
For `CCN1CCN(C(=O)N(Cc2ccc(-c3nnc(C(F)F)o3)cn2)c2ccc(F)c(Cl)c2)CC1` [Compound 21629, N-(3-chloro-4-fluorophenyl)-N-((5-(5-(difluoromethyl)-1,3,4-oxadiazol-2-yl)pyridin-2-yl)methyl)-4-ethylpiperazine-1-carboxamide] the same measures were 880 fold and 11 nM.
For the compound `O=C(N1CCOCC1)N(Cc1ccc(-c2nnc(C(F)F)o2)cn1)c1ccccc1` [Compound 21630, N-((5-(5-(difluoromethyl)-1,3,4-oxadiazol-2-yl)pyridin-2-yl)methyl)-N-phenylmorpholine-4-carboxamide], the “HDAC6 selectivity (fold)” value amounted to 549 fold and the IC50 stood at 18 nM.
Taken in the same sequence, the figures for `O=C(N1CCS(=O)(=O)CC1)N(Cc1ccc(-c2nnc(C(F)F)o2)cn1)c1ccc(Oc2ccccc2)cc1` [Compound 21631, N-((5-(5-(difluoromethyl)-1,3,4-oxadiazol-2-yl)pyridin-2-yl)methyl)-N-(4-phenoxyphenyl)thiomorpholine-4-carboxamide 1,1-dioxide] were 138 fold and 72 nM.
`Cc1ccccc1N(Cc1ccc(-c2nnc(C(F)F)o2)cn1)C(=O)N1CCN(C)CC1` [Compound 21632, N-((5-(5-(difluoromethyl)-1,3,4-oxadiazol-2-yl)pyridin-2-yl)methyl)-4-methyl-N-(o-tolyl)piperazine-1-carboxamide]: the “HDAC6 selectivity (fold)” value amounted to 245 fold and the IC50 stood at 41 nM.
As to `Cc1ccccc1N(Cc1ccc(-c2nnc(C(F)(F)F)o2)cn1)C(=O)N1CCN(C)CC1` [Compound 21633, 4-Methyl-N-(o-tolyl)-N-((5-(5-(trifluoromethyl)-1,3,4-oxadiazol-2-yl)pyridin-2-yl)methyl)piperazine-1-carboxamide], the “HDAC6 selectivity (fold)” value amounted to 58 fold and the IC50 is 173 nM.
